From US20100311714A1, “1H-IMIDAZO[4,5-c]QUINOLINONE COMPOUNDS” (priority 2009, published 2010)
pIC50: −log10 of the molar value. Read-outs that look alike come from different tables or passages of the source.

Columns and labels:
[1] = Parallel Artificial Membrane Permeability Assay (PAMPA) at pH 6.8; assay type: physicochemical
Summary of the method: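 PAMPA permeability measured at pH 6.8 following the Wohnsland and Faller method; value reported as log Pe.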

PI3K beta = molecular target: T1, PI3K beta (Homo sapiens, UniProt P42338); assay: PI3K beta kinase assay (Kinase-Glo luminescence); assay type: biochemical
T1 construct: for the full-length p110-b subunit are generated and fused by overlapping PCR; His tag (C); made in house; host or cells: baculovirus BV949; Tn5 (Trichoplusia ni) or TiniPro insect cells
T1 sequence (P42338 with tags, fused parts or gaps limits assumed): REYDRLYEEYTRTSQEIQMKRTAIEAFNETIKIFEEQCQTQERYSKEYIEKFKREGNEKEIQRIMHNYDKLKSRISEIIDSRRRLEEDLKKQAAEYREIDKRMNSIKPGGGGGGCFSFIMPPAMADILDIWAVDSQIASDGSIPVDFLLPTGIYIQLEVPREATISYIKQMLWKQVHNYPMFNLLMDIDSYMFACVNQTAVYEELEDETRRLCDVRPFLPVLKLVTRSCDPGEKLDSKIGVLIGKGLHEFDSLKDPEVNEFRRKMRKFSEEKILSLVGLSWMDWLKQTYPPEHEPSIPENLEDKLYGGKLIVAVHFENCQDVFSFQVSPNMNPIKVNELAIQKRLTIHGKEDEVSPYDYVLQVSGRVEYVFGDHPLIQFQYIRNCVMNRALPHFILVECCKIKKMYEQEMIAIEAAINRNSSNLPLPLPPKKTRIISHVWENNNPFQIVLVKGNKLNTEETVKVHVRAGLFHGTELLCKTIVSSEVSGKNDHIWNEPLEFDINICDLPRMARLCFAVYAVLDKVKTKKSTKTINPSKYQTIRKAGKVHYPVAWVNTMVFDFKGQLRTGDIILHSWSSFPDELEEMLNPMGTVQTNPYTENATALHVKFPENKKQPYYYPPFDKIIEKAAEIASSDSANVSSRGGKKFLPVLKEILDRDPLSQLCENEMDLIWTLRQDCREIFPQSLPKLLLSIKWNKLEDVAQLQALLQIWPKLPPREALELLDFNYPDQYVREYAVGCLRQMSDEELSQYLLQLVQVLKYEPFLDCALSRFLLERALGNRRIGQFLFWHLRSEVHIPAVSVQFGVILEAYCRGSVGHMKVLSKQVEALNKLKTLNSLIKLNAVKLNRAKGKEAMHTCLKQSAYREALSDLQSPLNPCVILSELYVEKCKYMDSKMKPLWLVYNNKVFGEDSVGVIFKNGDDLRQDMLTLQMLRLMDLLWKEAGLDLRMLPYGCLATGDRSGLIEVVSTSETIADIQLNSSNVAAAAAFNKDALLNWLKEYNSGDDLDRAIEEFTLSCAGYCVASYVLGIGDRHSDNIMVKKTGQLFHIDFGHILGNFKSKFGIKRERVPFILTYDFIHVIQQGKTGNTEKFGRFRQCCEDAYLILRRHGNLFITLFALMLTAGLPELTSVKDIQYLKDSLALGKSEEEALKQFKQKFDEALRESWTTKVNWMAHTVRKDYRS
Summary of the method: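 PI3Kβ construct BV949 (p85 iSH2–p110β full-length, C-His), 25 nM, reacted with 1 μM ATP and 10 μg/mL phosphatidylinositol in Tris pH 7.5, MgCl2, NaCl, CHAPS, DTT buffer, 60 min at room temperature. Remaining ATP by Kinase-Glo luminescence; IC50 from 4-parameter logistic fit of 8 concentrations.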

mTOR = molecular target: T2, mTOR (Homo sapiens, UniProt P42345); assay: Biochemical assay for m-TOR by TR-FRET
T2 construct: purchased Invitrogen Corporation (Carlsbad/Calif., USA) PV4753
T2 sequence (P42345 1360-2549 limits assumed): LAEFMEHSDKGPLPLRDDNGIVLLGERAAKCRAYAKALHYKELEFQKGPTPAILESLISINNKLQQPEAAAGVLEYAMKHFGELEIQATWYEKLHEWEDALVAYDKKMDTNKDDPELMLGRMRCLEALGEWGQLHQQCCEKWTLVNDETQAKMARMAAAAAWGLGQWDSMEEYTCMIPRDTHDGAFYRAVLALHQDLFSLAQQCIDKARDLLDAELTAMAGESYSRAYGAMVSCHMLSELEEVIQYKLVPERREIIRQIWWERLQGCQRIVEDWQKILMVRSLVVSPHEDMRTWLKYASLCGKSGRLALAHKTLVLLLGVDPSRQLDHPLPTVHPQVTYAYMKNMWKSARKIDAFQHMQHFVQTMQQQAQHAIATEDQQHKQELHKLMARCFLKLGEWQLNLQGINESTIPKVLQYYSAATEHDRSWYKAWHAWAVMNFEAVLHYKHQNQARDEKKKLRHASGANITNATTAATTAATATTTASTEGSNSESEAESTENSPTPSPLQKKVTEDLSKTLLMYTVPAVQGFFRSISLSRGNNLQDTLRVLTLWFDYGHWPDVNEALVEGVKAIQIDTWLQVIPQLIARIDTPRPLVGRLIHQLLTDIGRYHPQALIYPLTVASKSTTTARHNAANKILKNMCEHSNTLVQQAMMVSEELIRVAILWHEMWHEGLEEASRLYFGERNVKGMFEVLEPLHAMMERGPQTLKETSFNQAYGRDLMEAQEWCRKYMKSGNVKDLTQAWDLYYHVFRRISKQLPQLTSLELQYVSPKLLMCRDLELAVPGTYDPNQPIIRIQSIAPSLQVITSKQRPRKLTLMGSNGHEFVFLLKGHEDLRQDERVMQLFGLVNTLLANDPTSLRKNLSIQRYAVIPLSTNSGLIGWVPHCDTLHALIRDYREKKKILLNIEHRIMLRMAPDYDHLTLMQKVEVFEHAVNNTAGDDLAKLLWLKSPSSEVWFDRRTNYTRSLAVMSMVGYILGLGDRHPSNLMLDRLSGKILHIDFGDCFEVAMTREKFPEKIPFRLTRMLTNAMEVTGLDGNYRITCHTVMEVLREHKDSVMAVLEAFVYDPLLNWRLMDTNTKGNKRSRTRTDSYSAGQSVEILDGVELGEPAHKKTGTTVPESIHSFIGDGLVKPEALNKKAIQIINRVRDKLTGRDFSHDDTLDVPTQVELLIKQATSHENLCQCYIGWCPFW
Summary of the method: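 mTOR (0.5 nM) phosphorylates GFP-4EBP1 (400 nM) with 8 μM ATP at rt in 50 mM HEPES pH 7.5, 10 mM MnCl2, 50 mM NaCl, 1 mM EGTA, 1 mM DTT; compounds 0.003–10 μM final. EDTA stop with Tb-anti-p4EBP1[pT46] antibody (0.5 nM); TR-FRET read after 15 min against no-enzyme and vehicle controls.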

| Compound | HT-Perm logPe pH6.8 [1] | pIC50 (PI3K beta; read-out: EPK_PI3Kbeta/IC50) | pIC50 (mTOR; read-out: EPK_mTOR/IC50) | HT-perm/logPe pH6.8 [1] | pIC50 (PI3K beta; read-out: PI3Kbeta/IC50) | pIC50 (mTOR; read-out: mTOR/IC50) |
| --- | --- | --- | --- | --- | --- | --- |
| CNc1cc(-c2ccc3ncc4c(c3c2)n(-c2cccnc2C)c(=O)n4C)cnc1C [Example 2.32, 3-Methyl-8-(6-methyl-5-methylamino-pyridin-3-yl)-1-(2-methyl-pyridin-3-yl)-1,3-dihydro-imidazo[4,5-c]quinolin-2-one] | −4.8 | 7.21 | 8.15 |  |  |  |
| Cc1ncccc1-n1c(=O)n(C)c2cnc3ccc(-c4cncc(N)c4)cc3c21 [Example 2.25, 8-(5-Amino-pyridin-3-yl)-3-methyl-1-(2-methyl-pyridin-3-yl)-1,3-dihydro-imidazo[4,5-c]quinolin-2-one] | −7.7 | 6.84 | 7.92 |  |  |  |
| COCc1ncc(-c2ccc3ncc4c(c3c2)n(-c2ccc(N3CCC3)nc2C)c(=O)n4C)cc1OC(C)C [Example 23.2, 1-(6-Azetidin-1-yl-2-methyl-pyridin-3-yl)-8-(5-isopropoxy-6-methoxymethyl-pyridin-3-yl)-3-methyl-1,3-dihydro-imidazo[4,5-c]quinolin-2-one] | −3.7 | 6.71 | 7.36 |  |  |  |
| COc1ccc(-c2ccc3ncc4c(c3c2)n(-c2cccnc2C)c(=O)n4C)cc1OC [Example 2.9, 8-(3,4-Dimethoxy-phenyl)-3-methyl-1-(2-methyl-pyridin-3-yl)-1,3-dihydro-imidazo[4,5-c]quinolin-2-one] |  |  |  | −3.3 | 7.11 | 7.64 |
| CCOc1ccc(-c2ccc3ncc4c(c3c2)n(-c2ccc(F)nc2C)c(=O)n4C)cn1 [Example 7.3, 8-(6-Ethoxy-pyridin-3-yl)-1-(6-fluoro-2-methyl-pyridin-3-yl)-3-methyl-1,3-dihydro-imidazo[4,5-c]quinolin-2-one] |  |  |  | −3.7 | 6.34 | 7.23 |
| Cc1nc(N(C)CCO)ccc1-n1c(=O)n(C)c2cnc3ccc(-c4cnc(N)c(C(F)(F)F)c4)cc3c21 [Example 26.1, 8-(6-Amino-5-trifluoromethyl-pyridin-3-yl)-1-{6-[(2-hydroxy-ethyl)-methyl-amino]-2-methyl-pyridin-3-yl}-3-methyl-1,3-dihydro-imidazo[4,5-c]quinolin-2-one] | −4.2 | > 8.52 | > 8.22 |  |  |  |
| Cc1nc(F)ccc1-n1c(=O)n(C)c2cnc3ccc(-c4cncc(C(C)(C)O)c4)cc3c21 [Example 7.8, 1-(6-Fluoro-2-methyl-pyridin-3-yl)-8-[5-(1-hydroxy-1-methyl-ethyl)-pyridin-3-yl]-3-methyl-1,3-dihydro-imidazo[4,5-c]quinolin-2-one] | −5.5 | 7.35 | 7.07 |  |  |  |
| CNc1ncc(-c2ccc3ncc4c(c3c2)n(-c2ncccc2C)c(=O)n4C)cn1 [Example 3.4, 3-Methyl-8-(2-methylamino-pyrimidin-5-yl)-1-(3-methyl-pyridin-2-yl)-1,3-dihydro-imidazo[4,5-c]quinolin-2-one] |  |  |  | −4.7 |  | 6.22 |
| CNc1ccc(-c2ccc3ncc4c(c3c2)n(-c2ccc(F)nc2C)c(=O)n4C)cn1 [Example 7.4, 1-(6-Fluoro-2-methyl-pyridin-3-yl)-3-methyl-8-(6-methylamino-pyridin-3-yl)-1,3-dihydro-imidazo[4,5-c]quinolin-2-one] |  |  |  | −4.3 | 6.58 | 8.10 |
| CN(C)c1ccc(-c2ccc3ncc4c(c3c2)n(-c2cccnc2)c(=O)n4C)cn1 [Example 5.3, 8-(6-Dimethylamino-pyridin-3-yl)-3-methyl-1-pyridin-3-yl-1,3-dihydro-imidazo[4,5-c]quinolin-2-one] |  |  |  | −3.9 |  | 6.60 |
| COc1ccc(-c2ccc3ncc4c(c3c2)n(-c2ncccc2C)c(=O)n4C)cc1OC [Example 3.10, 8-(3,4-Dimethoxy-phenyl)-3-methyl-1-(3-methyl-pyridin-2-yl)-1,3-dihydro-imidazo[4,5-c]quinolin-2-one] |  |  |  | −3.8 |  |  |
